Calls of active or inactive are those of the source. No cut-off for these calls is given here.
Columns and labels:
[1] = target: Cholinesterases; ACHE & BCHE (Homo sapiens) (UniProt P06276+P22303); assay: Selectivity index, ratio of IC50 for inhibition of human erythrocyte AChE to IC50 for inhibition of human plasma BChE; format: protein assay
[2] = target: Acetylcholinesterase (Homo sapiens) (UniProt P22303); assay: Inhibition of human erythrocyte AChE at 10 uM using acetylthiocholine iodide as substrate preincubated for 20 mins followed by substrate addition and measured after 2.5 mins by DTNB reagent based spectrometric method relative to control
Sequence of Acetylcholinesterase (Homo sapiens) (P22303 whole entry): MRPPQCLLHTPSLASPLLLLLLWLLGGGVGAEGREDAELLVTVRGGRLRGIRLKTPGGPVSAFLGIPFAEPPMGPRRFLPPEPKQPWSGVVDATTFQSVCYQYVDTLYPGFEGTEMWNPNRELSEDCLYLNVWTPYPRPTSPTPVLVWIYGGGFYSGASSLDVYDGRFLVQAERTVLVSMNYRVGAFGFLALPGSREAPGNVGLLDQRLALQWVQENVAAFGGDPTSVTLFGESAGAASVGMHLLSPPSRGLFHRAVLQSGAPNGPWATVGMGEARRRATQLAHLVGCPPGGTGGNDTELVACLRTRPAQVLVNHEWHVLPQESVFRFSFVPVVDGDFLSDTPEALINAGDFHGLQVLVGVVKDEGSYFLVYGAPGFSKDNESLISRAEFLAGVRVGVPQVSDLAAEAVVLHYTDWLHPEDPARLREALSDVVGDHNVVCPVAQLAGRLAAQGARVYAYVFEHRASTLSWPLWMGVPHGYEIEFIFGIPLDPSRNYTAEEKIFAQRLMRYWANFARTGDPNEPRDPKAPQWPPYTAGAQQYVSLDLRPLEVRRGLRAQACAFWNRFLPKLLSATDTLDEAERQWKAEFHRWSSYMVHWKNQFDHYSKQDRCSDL

Cholinesterase [3] = target: T1, Cholinesterase (Homo sapiens, UniProt P06276); assay: Inhibition of human plasma BChE assessed as carbamylation by measuring rate constant for […] formation using butyrylthiocholine iodide as substrate preincubated for 5 to 40 mins followed by substrate addition and measured after 2.5 mins by DTNB reagent based UV-spectrometric method
T1 sequence (P06276 whole entry): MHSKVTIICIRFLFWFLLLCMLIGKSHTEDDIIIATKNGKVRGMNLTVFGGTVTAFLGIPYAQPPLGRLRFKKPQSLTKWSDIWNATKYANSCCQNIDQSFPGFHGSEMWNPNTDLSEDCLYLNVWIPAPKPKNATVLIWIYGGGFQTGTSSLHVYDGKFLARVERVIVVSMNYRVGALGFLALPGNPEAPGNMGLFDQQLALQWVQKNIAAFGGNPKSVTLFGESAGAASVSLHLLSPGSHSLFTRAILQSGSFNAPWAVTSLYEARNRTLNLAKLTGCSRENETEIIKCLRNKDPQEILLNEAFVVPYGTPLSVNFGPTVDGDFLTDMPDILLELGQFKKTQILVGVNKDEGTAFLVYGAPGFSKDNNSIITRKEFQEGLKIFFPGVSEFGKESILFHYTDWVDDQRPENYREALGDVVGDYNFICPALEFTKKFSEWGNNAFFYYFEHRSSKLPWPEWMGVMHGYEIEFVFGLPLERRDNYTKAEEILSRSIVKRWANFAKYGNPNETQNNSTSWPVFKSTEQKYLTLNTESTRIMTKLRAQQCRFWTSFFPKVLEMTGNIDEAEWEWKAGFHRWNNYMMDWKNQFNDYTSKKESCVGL

Cholinesterase [4] = target: T1, Cholinesterase; assay: Inhibition of human plasma BChE assessed as carbamylation by measuring rate constant for inhibitor-enzyme complex formation using butyrylthiocholine iodide as substrate preincubated for 5 to 40 mins followed by substrate addition and measured after 2.5 mins by DTNB reagent based UV-spectrometric method
Cholinesterase [5] = target: T1, Cholinesterase; assay: Inhibition of human plasma BChE using butyrylthiocholine iodide as substrate preincubated for 20 mins followed by substrate addition and measured after 2.5 mins by DTNB reagent based spectrometric method
Cholinesterase [6] = target: T1, Cholinesterase; assay: Inhibition of human plasma BChE assessed as decarbamylation by measuring rate constant for enzyme recovery at IC>85 using butyrylthiocholine iodide as substrate incubated for 1 hr prior to compound dilution further incubated for 1 to 40 mins and subsequent substrate addition and measured after 2.5 mins by DTNB reagent based UV-spectrometric method
Cholinesterase [7] = target: T1, Cholinesterase; assay: Inhibition of human plasma BChE assessed as half life for enzyme-inhibitor […] at IC>85 using butyrylthiocholine iodide as substrate incubated for 1 hr prior to compound dilution further incubated for 1 to 40 mins and subsequent substrate addition and measured after 2.5 mins by DTNB reagent based UV-spectrometric method
Mus musculus [8] = assay: Effect on shock sensitivity during training in Swiss mouse model of Alzheimer's disease assessed as increase in retention latency time at 0.3 to 3 mg/kg, ip administered once daily for 7 days measured 48 hrs post-last dose by step-through passive avoidance test; format: ADME, organism-based; conditions: in vivo
Mus musculus [9] = assay: Neuroprotection against oligomerized-amyloid beta (25 to 35)-induced Swiss mouse model of Alzheimer's disease assessed as improvement in spontaneous alternation at 3 mg/kg, ip administered once daily for 7 days measured on day 8 by Y-maze test; format: functional, organism-based
Mus musculus [10] = assay: Neuroprotection against oligomerized-amyloid beta (25 to 35)-induced Swiss mouse model of Alzheimer's disease assessed as increase in retention latency time at 1 to 3 mg/kg, ip administered once daily for 7 days measured 48 to 72 hrs post-last dose by step-through passive avoidance test; format: functional, organism-based
Mus musculus [11] = assay: Effect on latency time during training in Swiss mouse model of Alzheimer's disease assessed as increase in retention latency time at 0.3 to 3 mg/kg, ip administered once daily for 7 days measured 48 hrs post-last dose by step-through passive avoidance test; format: ADME, organism-based; conditions: in vivo
[12] = Toxicity in oligomerized-amyloid beta (25 to 35)-induced Swiss mouse model of Alzheimer's disease assessed as effect on body weight gain at 0.3 to 3 mg/kg, ip administered once daily for 7 days measured daily during compound dosing; format: organism-based; conditions: in vivo, 168 h
Mus musculus [13] = assay: Neuroprotection against oligomerized-amyloid beta (25 to 35)-induced Swiss mouse model of Alzheimer's disease assessed as increase in number of arm entries at 0.3 to 3 mg/kg, ip administered once daily for 7 days measured on day 8 by Y-maze test; format: functional, organism-based
Mus musculus [14] = assay: Neuroprotection against oligomerized-amyloid beta (25 to 35)-induced Swiss mouse model of Alzheimer's disease assessed as improvement in spontaneous alternation at 0.3 mg/kg, ip administered once daily for 7 days measured on day 8 by Y-maze test; format: functional, organism-based
Mus musculus [15] = assay: Neuroprotection against oligomerized-amyloid beta (25 to 35)-induced Swiss mouse model of Alzheimer's disease assessed as increase in retention latency time at 0.3 to 3 mg/kg, ip administered once daily for 7 days measured 48 to 72 hrs post-last dose by step-through passive avoidance test; format: functional, organism-based
HT-22 [16] = assay: Neuroprotection against glutamate-induced cell death in mouse HT22 cells assessed as increase in cell viability measured after 24 hrs by MTT assay; format: functional, cell-based
HT-22 [17] = assay: Neurotoxicity in mouse HT22 cells assessed as reduction in cell viability up to 25 uM measured after 24 hrs by MTT assay; format: toxicity, cell-based; conditions: ht-22, 24 h
Mus musculus [18] = assay: Neuroprotection against oligomerized-amyloid beta (25 to 35)-induced Swiss mouse model of Alzheimer's disease assessed as improvement in spontaneous alternation at 1 mg/kg, ip administered once daily for 7 days measured on day 8 by Y-maze test; format: functional, organism-based
Mus musculus [19] = assay: Neuroprotection against oligomerized-amyloid beta (25 to 35)-induced Swiss mouse model of Alzheimer's disease assessed as improvement in spontaneous alternation at 0.3 to 3 mg/kg, ip administered once daily for 7 days measured on day 8 by Y-maze test; format: functional, organism-based
Mus musculus [20] = assay: Neuroprotection against oligomerized-amyloid beta (25 to 35)-induced Swiss mouse model of Alzheimer's disease assessed as improvement in spontaneous alternation at 1 to 3 mg/kg, ip administered once daily for 7 days measured on day 8 by Y-maze test; format: functional, organism-based
HT-22 [21] = assay: Neuroprotection against glutamate-induced cell death in mouse HT22 cells assessed as increase in cell viability at 5 uM measured after 24 hrs by MTT assay; format: functional, cell-based

Sequence of Cholinesterases; ACHE & BCHE (Homo sapiens) (P06276 whole entry, looked up): as the sequence (P06276 whole entry) above
Sequence of Cholinesterases; ACHE & BCHE (Homo sapiens) (P22303 whole entry, looked up): as the sequence (P22303 whole entry) above

Compound	Ratio IC50 [1]	inhibition [2]	K (Cholinesterase [3])	K (Cholinesterase [4])	IC50 (Cholinesterase [5])	K (Cholinesterase [6])	T1/2 (Cholinesterase [7])	further results
CN1c2ccc(OC(=O)NCCCN3CCOCC3)cc2CN2CCc3ccccc3C21 (stereo not drawn)	> 100	2.1%						
CN1c2ccc(OC(=O)NCCCCCCN3CCNCC3)cc2CN2CCc3ccccc3C21 (stereo not drawn)	> 100	35.5%	121 nM	0.32 min⁻¹	80.6 nM	1.44 h⁻¹	0.48 h	
CN1c2ccc(OC(=O)NCCCCCCN3CCN(C(=O)OC(C)(C)C)CC3)cc2CN2CCc3ccccc3C21 (stereo not drawn)	> 10	70.6%	1550 nM	0.7 min⁻¹	123 nM			
CCCCCCCNC(=O)Oc1ccc2c(c1)CN(C)C(c1cccs1)N2C (stereo not drawn)								Activity (Mus musculus [8]): Non-Toxic; Activity (Mus musculus [9]): Active; Activity (Mus musculus [10]): Active; Activity (Mus musculus [11]): Non-Toxic; Activity [12]: Non-Toxic; Activity (Mus musculus [13]): inactive
CN1c2ccc(OC(=O)NCCCCN3CCc4ccccc4C3)cc2CN2CCc3ccccc3C21 (stereo not drawn)	> 100	6%			192 nM	0.028 h⁻¹	24.8 h	
CN1c2ccc(OC(=O)NCCCCCCN3CCOCC3)cc2CN2CCc3ccccc3C21 (stereo not drawn)	> 1000	26.1%	202 nM	0.16 min⁻¹	49.3 nM	0.042 h⁻¹	16.5 h	Activity (Mus musculus [8]): Non-Toxic; Activity (Mus musculus [14]): Active; Activity (Mus musculus [15]): Active; Activity (HT-22 [16]): Dose-dependent effect; Activity (HT-22 [17]): Non-Toxic; Activity (Mus musculus [11]): Non-Toxic; Activity [12]: Non-Toxic; Activity (Mus musculus [13]): Active
CN1c2ccc(OC(=O)NCCCCN3CCOCC3)cc2CN2CCc3ccccc3C21 (stereo not drawn)	> 1000	16.3%			50.6 nM	0.48 h⁻¹	1.44 h	
CN1c2ccc(OC(=O)NCCCCCCCCN3CCOCC3)cc2CN2CCc3ccccc3C21 (stereo not drawn)	> 1000	13.6%			19.8 nM	1.58 h⁻¹	0.44 h	
CN1c2ccc(OC(=O)NCCCCCCN3CCCCC3)cc2CN2CCc3ccccc3C21 (stereo not drawn)	14				83.7 nM	0.123 h⁻¹	5.64 h	
CN1c2ccc(OC(=O)NCCCCCCCCCCN3CCOCC3)cc2CN2CCc3ccccc3C21 (stereo not drawn)	> 1000	17.8%			11.5 nM			
CN1c2ccc(OC(=O)NCCCCCCn3ccnc3)cc2CN2CCc3ccccc3C21 (stereo not drawn)	> 1000	9.1%	13.1 nM	0.31 min⁻¹	13.3 nM	0.82 h⁻¹	0.85 h	
CN1c2ccc(OC(=O)NCCCCCCN3CCc4ccccc4C3)cc2CN2CCc3ccccc3C21 (stereo not drawn)	> 1000	0.4%	3.6 nM	0.18 min⁻¹	26.7 nM	0.025 h⁻¹	27.7 h	Activity (Mus musculus [8]): Non-Toxic; Activity (Mus musculus [18]): Active; Activity (Mus musculus [15]): Active; Activity (HT-22 [16]): Dose-dependent effect; Activity (HT-22 [17]): Non-Toxic; Activity (Mus musculus [11]): Non-Toxic; Activity [12]: Non-Toxic; Activity (Mus musculus [13]): Active
CN1c2ccc(OC(=O)NCCCN3CCc4ccccc4C3)cc2CN2CCc3ccccc3C21 (stereo not drawn)	> 10	6.4%			1160 nM			
CN1c2ccc(OC(=O)NCCCCCCCCCCN3CCc4ccccc4C3)cc2CN2CCc3ccccc3C21 (stereo not drawn)	> 1000	5.7%	5.68 nM	0.25 min⁻¹				
CN1c2ccc(O)cc2CN2CCc3ccccc3C21 (stereo not drawn)								Activity (Mus musculus [8]): Non-Toxic; Activity (Mus musculus [15]): inactive; Activity (Mus musculus [19]): inactive; Activity (Mus musculus [11]): Non-Toxic; Activity [12]: Non-Toxic; Activity (Mus musculus [13]): Active
CCCCCCCNC(=O)Oc1ccc2c(c1)CN1CCc3ccccc3C1N2C (stereo not drawn)				0.66 min⁻¹				Activity (Mus musculus [8]): Non-Toxic; Activity (Mus musculus [20]): Active; Activity (Mus musculus [15]): Active; Activity (HT-22 [21]): Active; Activity (HT-22 [17]): Non-Toxic; Activity (Mus musculus [11]): Non-Toxic; Activity [12]: Non-Toxic; Activity (Mus musculus [13]): Active
CN1c2ccc(OC(=O)NCCCCCCn3cnc4ccccc43)cc2CN2CCc3ccccc3C21 (stereo not drawn)	> 1000	28.8%	7.7 nM	0.26 min⁻¹		0.45 h⁻¹	1.55 h	
CN1c2ccc(OC(=O)NCCCCCCCCN3CCc4ccccc4C3)cc2CN2CCc3ccccc3C21 (stereo not drawn)	> 1000	6.2%			32.6 nM	0.83 h⁻¹	0.84 h	
CN1c2ccc(OC(=O)NCCCCCCN3CCCC3)cc2CN2CCc3ccccc3C21 (stereo not drawn)	26				34.3 nM	0.98 h⁻¹	0.71 h	
CN1c2ccc(OC(=O)NCCN3CCc4ccccc4C3)cc2CN2CCc3ccccc3C21 (stereo not drawn)	> 10	3.9%	> 200000 nM	> 20 min⁻¹	1720 nM			
CN1c2ccc(OC(=O)NCCN3CCOCC3)cc2CN2CCc3ccccc3C21 (stereo not drawn)	> 10	4.1%						
